As usually defined, the IC50 is the point on the concentration scale where inhibition reaches its midpoint. A lower IC50 goes with greater potency in that assay. What is called CC50 is the concentration at which the toxic effect on the cells reaches its halfway point. Read a low CC50 as greater toxicity to the cells. As usually defined, the solubility (kinetic) is the concentration staying in solution when a stock, usually in DMSO, is diluted into the medium.

SMILES strings stand for the structures.

From patent US20250177392A1, “BROAD SPECTRUM INHIBITORS OF CYTOMEGALOVIRUS” (MICROBIOTIX, INC., priority 2022, published 2025) come the findings set out here.

The subject of one series is HCMV strain AD169^R. The series is described as follows: CMV infection (neutralization) assay, GFP/IE1 readout 24 hpi, AD169^R. The format is cell-based, Human cytomegalovirus. The settings on record: Human betaherpesvirus 5, AD169, Fibroblast. As for the experimental part: Fibroblasts and ARPE-19 cells (10^4) were plated in 96-well plates (Greiner, Monroe, NC). The following day the cells were pretreated for 1 hour at 37° C. with increasing concentrations of the respective novel NAPA compounds described herein or DMSO in triplicate prior to infection with the respective viruses. At 18 hours post infection (hpi) cells were stained using a rabbit anti-IE1 antibody followed by an anti-rabbit Alexa 647 and measured using a Celigo Cytometer (Parsons et al., Antiviral Res., 193:105124 (2021); Stein et al., Nat. Commun., 10:2699 (2019)). Using the DMSO treated cells as 100% infection, the percent infection of the NAPA compound-treated cells was determined. The half maximal inhibitory (IC50) values were calculated using Prism9's nonlinear fit [inhibitor]-vs-response (four parameters) analysis of these averages and extrapolation to the concentration that would produce 50% infection relative to DMSO treatment.
To further evaluate the inhibitory properties of MBXC-4302 against CMV, we utilized the AD169 CMV virus strain containing the UL131-UL128 open reading frame of the HCMV strain TR and expressing EGFP (AD169^R) (Wang D. and Shenk T., Proc. Nat. Acad. Sci., USA, 102:18153-18158 (2005)) and TB40/E infection of human fibroblasts (NHDF) and ARPE-19 epithelial cells in the presence of increasing concentration of compound (FIG. 2A-D). Infection was analyzed 24 hours post infection (hpi) by measuring GFP fluorescence encoded by AD169^R or using an anti-IE1 antibody for staining TB40/E infected cells.
NAPA variants with modified groups were evaluated for inhibition of CMV infection in fibroblasts. AD169^R infected fibroblasts were treated with NAPA compounds MBX-4992, MBXC-4325, MBXC-4330, and MBXC-4336 (0-50 μM) and analyzed for infection at 24 hpi (FIG. 6A-D). The infected cells were probed for IE1 as an indication of virus infection.

Series [1] relates to TR, Towne, and TB40/E strains. The series is described as follows: CMV infection assay of MBXC-4336 with further strains. Format: cell-based, Human cytomegalovirus. Conditions: NHDF cells, 24 hpi, IE1 (FIG. 11F-H). On the procedure:
HCMV strains AD169 (A), TB40/E Flag YFP (B), Towne (C and G), TR (D and F), Merlin (E), and TB40/E (H) infection of NHDF cells pre-treated with DMSO and 0, 1, 5, or 20 μM MBX-4992 or MBXC-4336, respectively, were assessed at 24 hpi based on IE1 expression by anti-IE1 immunostain. TB40/E (I) (MOI 0.25) and AD169^R (J) (MOI 0.25) infection of HTR-svNeo cells treated with DMSO and 0, 1, 5, or 20 μM MBX-4992 were assessed at 24 hpi based on IE1 expression by anti-IE1 immunostain. The % infection was determined using DMSO-treated as 100% infection. The error bars represent values in triplicate. Statistical tests were performed using ordinary one-way ANOVA with multiple comparisons to DMSO treated cells as a control and a Dunnett's post-test *, p<0.05; **, p<0.01; ****, p<0.0001.
Fibroblasts and ARPE-19 cells (10^4) were plated in 96-well plates (Greiner, Monroe, NC). […] At 18 hours post infection (hpi) cells were stained using a rabbit anti-IE1 antibody followed by an anti-rabbit Alexa 647 and measured using a Celigo Cytometer (Parsons et al., Antiviral Res., 193:105124 (2021); Stein et al., Nat. Commun., 10:2699 (2019)). Using the DMSO treated cells as 100% infection, the percent infection of the NAPA compound-treated cells was determined. […]

A further series relates to HSV-1 E-377. The series is described as follows: Herpes virus panel neutralization, HSV-1. The format is cell-based, Herpes simplex virus 1. On the procedure: (§1) To determine the specificity of MBX-4992, additional neutralization experiments were conducted using a panel of herpes viruses performed in the presence of MBX-4992. […] Collectively, the antiviral activity of MBX-4992 is equivalent to that of GCV indicating specific inhibition of CMV replication.

For a further series, the system named is AD169^R. The series is described as follows: Cells pre-incubation / washout study. The format is cell-based, Human cytomegalovirus. As for the experimental part: (C) NHDF cells were pre-incubated with DMSO, MBX-4992 or heparin prior to virus addition. After addition of AD169^R (MOI 0.2) for 30 min, media was either unchanged or replaced with media containing DMSO, MBX-4992, or heparin. Virus infection was quantified at 24 hpi by GFP fluorescence. Percent infection was normalized to untreated cells. Statistical tests were performed using ordinary one-way ANOVA with multiple comparisons to DMSO treated cells as a control and a Dunnett's post-test: *, p<0.05; ****, p<0.0001.
NHDF cells (10^4) plated overnight in a 96-well plate were pretreated with MBX-4992 (10 μM), heparin (50 μg/mL) or DMSO for 1 hour at 37° C. The plate was then placed at 4° C. for 5 minutes followed by the addition of AD169^R CMV virus for 30 minutes. 2/3rd of the samples were aspirated post binding. Half of those samples received DMSO media, regardless of the drug the cells were previously exposed to. The remaining wells received either MBX-4992 (10 μM) or Heparin (50 μg/mL) overnight. At 18 hpi, the cells were fixed with 4% paraformaldehyde, stained with a rabbit anti-IE1 antibody followed by an anti-rabbit Alexa 647, and analyzed using the Celigo cytometer. The DMSO condition that was not aspirated post binding was set as 100% infection.
We next examined whether pre-treating cells with MBX-4992 can limit virus infection. Cells were pre-treated with MBX-4992 or heparin for […] followed by the addition of AD169^R for 30 min at 4° C. The cells were either washed out or unchanged as indicated and replaced with media containing DMSO, MBX-4992, or heparin followed by incubation at 37° C. At 18 hpi, virus infection was evaluated using a Celigo cytometer.

Series [2] is described as follows: Cytotoxicity (CC50) against Hela cells for 3 d. The format is cell-based. The settings on record: human.
Series [3] is described as follows: Maximum solubility in water by nephlometry. The format is physicochemical. The settings on record: Maximum solubility in water determined by nephlometry.
Another series concerns EBV Akata. The series is described as follows: Herpes virus panel neutralization, EBV. The format is cell-based, Epstein-Barrvirus. As for the experimental part: as §1

In the series on HCMV strain AD169^R, `Cc1nc(Nc2cccc(NC(=O)c3ccco3)c2)cc(N2CCCCC2)n1` [MBXC-4336] displayed an IC50 of 2.9 µM. Besides, the “effectiveness against further strains” value in series [1] was “effectiveness of MBXC-4336 was validated”.

As to `Cc1nc(Nc2ccc(NC(=O)c3ccco3)cc2)cc(N2CCCC2)n1` [MBX-4992], the SI is reported as below 2 with HSV-1 E-377 and above 3 in the series with EBV Akata. For the same compound, the half-inhibitory concentration (IC50) is above 30 µM with HSV-1 E-377 (Human alphaherpesvirus 1) and 30.9 µM in the series on EBV Akata (human gammaherpesvirus 4). In addition, in the series with AD169^R (cells pre-incubated and compound sequentially removed), the “virus infection, drug removed” value is “do not significantly impact infection”. Besides, in the series on AD169^R (cells pre-treated, drugs not removed or added back to washed-out cells), the “virus infection, drug not removed or added back” value is “significantly inhibited virus infection”. This compound also yielded a CC50 at 3 d in series [2] above 100 µM. The Sol result in series [3] is listed as “high solubility”. This compound registered a solubility (kinetic) in series [3] (kinetic from dmso stock) above 200 µM.
